Test results: PMC8963254, “Effects of Lysine N-ζ-Methylation in Ultrashort Tetrabasic Lipopeptides (UTBLPs) on the Potentiation of Rifampicin, Novobiocin, and Niclosamide in Gram-Negative Bacteria” (Antibiotics, 2022)
Converted amounts (≈) assume the structure as drawn. Read-outs that look alike come from different tables or passages of the source.

Tests used:
[1] = system: E. faecium ATCC 27270; assay type: cell-based, Enterococcus faecium; details: ATCC 27270, 18 h
Procedure, shortened: (§1)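 Turbidity at 590 nm defined growth, from which the MIC was taken. Cultures at a final density of 5 × 10^5 CFU/mL were exposed to a range of compound levels at 37 °C for 18 h in a CLSI-based microdilution format.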

[2] = system: E. faecium ATCC 27270; assay type: cell-based, Enterococcus faecium
Procedure, shortened: (§2)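 Values derive from a two-agent checkerboard with an 18 h, 37 °C incubation. FICI cut-offs: ≤0.5 synergy, 0.5–4 additive, >4 antagonism.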

[3] = system: E. coli 94474; assay type: cell-based, Escherichia coli; details: for MICUTBLP: UTBLP alone
Procedure, shortened: as §2

[4] = system: E. coli 94393; assay type: cell-based, Escherichia coli; details: for MICUTBLP: UTBLP alone
Procedure, shortened: as §2

[5] = system: S. aureus ATCC 29213; assay type: cell-based, Staphylococcus aureus; details: ATCC 29213, 18 h
Procedure, shortened: as §1

[6] = system: MRSA ATCC 33592; assay type: cell-based, Staphylococcus aureus; details: ATCC 33592, 18 h
Procedure, shortened: as §1

[7] = system: P. aeruginosa PAO1; assay type: cell-based, Pseudomonas aeruginosa; details: for MICUTBLP: UTBLP alone
Procedure, shortened: as §2

[8] = system: P. aeruginosa PA262-101856; assay type: cell-based, Pseudomonas aeruginosa; details: for MICUTBLP: UTBLP alone
Procedure, shortened: as §2

[9] = system: P. aeruginosa PA259-96196; assay type: cell-based, Pseudomonas aeruginosa; details: for MICUTBLP: UTBLP alone
Procedure, shortened: as §2

[10] = system: E. faecalis ATCC 29212; assay type: cell-based, Enterococcus faecalis; details: ATCC 29212, 18 h
Procedure, shortened: as §1

[11] = system: E. cloacae 118564; assay type: cell-based, Enterobacter cloacae; details: for MICUTBLP: UTBLP alone
Procedure, shortened: as §2

[12] = system: E. faecalis ATCC 29212; assay type: cell-based, Enterococcus faecalis
Procedure, shortened: as §2

[13] = system: MSSE 81388; assay type: cell-based, Staphylococcus epidermidis; details: 18 h
Procedure, shortened: as §1

[14] = system: MRSE 61589; assay type: cell-based, Staphylococcus epidermidis; details: 61589, 18 h
Procedure, shortened: as §1

[15] = system: K. pneumoniae 113250; assay: microbe, parasite or virus in culture; assay type: cell-based, Klebsiella pneumoniae; details: 113250, 18 h
Procedure, shortened: as §1

[16] = system: P. aeruginosa PA262-101856; assay: microbe, parasite or virus in culture; assay type: cell-based, Pseudomonas aeruginosa; details: PA262-101856, 18 h
Procedure, shortened: as §1

[17] = system: P. aeruginosa PA259-96196; assay: microbe, parasite or virus in culture; assay type: cell-based, Pseudomonas aeruginosa; details: PA259-96196, 18 h
Procedure, shortened: as §1

[18] = system: K. pneumoniae 113250; assay type: cell-based, Klebsiella pneumoniae; details: for MICUTBLP: UTBLP alone
Procedure, shortened: as §2

[19] = UTBLP alone, plate with chloramphenicol
[20] = UTBLP in combination with chloramphenicol
[21] = chloramphenicol in combination with the UTBLP
[22] = UTBLP in combination with novobiocin
[23] = UTBLP in combination with rifampicin
[24] = novobiocin in combination with the UTBLP
[25] = rifampicin in combination with the UTBLP

For `CCCCCCCC(=O)N[C@@H](CCCCN)C(=O)NCCCN(CCCNC(=O)[C@H](CCCCN)NC(=O)CCCCCCC)CC(=O)N[C@@H](CCCCN)C(N)=O` [UTBLP 1], the MIC [1] was 64 µg/mL (≈ 77.6 µM), the Interpretation ([2]; UTBLP + chloramphenicol) was “Additive (0.5 < x ≤ 4 is additive)” and the MICUTBLP [2, 19] was 64 µg/mL. For the same compound, the “MICUTBLP [MICcombo]” value [2, 20] was 0.25 µg/mL, the “MICchloramphenicol [MICcombo]” value [2, 21] was 8 µg/mL and the Interpretation ([3]; UTBLP + novobiocin) was “Synergy (FICI ≤ 0.5 is synergistic)”. For the same compound, the Interpretation ([3]; UTBLP + rifampicin) was “Synergy (FICI ≤ 0.5 is synergistic)”, the MICUTBLP ([3]; plate with novobiocin) was greater than 128 µg/mL and the MICUTBLP ([3]; plate with rifampicin) was greater than 128 µg/mL. The “MICUTBLP [MICcombo]” value [3, 22] was 8 µg/mL, the “MICUTBLP [MICcombo]” value [3, 23] was 8 µg/mL and the “MICantibiotic [MICcombo]” value [3, 24] was 4 µg/mL. For the same compound, the “MICantibiotic [MICcombo]” value [3, 25] was 0.125 µg/mL, the Interpretation ([4]; UTBLP + novobiocin) was “Synergy (FICI ≤ 0.5 is synergistic)” and the Interpretation ([4]; UTBLP + rifampicin) was “Synergy (FICI ≤ 0.5 is synergistic)”. The MICUTBLP ([4]; plate with novobiocin) was greater than 128 µg/mL, the MICUTBLP ([4]; plate with rifampicin) was greater than 128 µg/mL and the “MICUTBLP [MICcombo]” value [4, 22] was 8 µg/mL. The “MICUTBLP [MICcombo]” value [4, 23] was 8 µg/mL, the “MICantibiotic [MICcombo]” value [4, 24] was 0.5 µg/mL and the “MICantibiotic [MICcombo]” value [4, 25] was 0.031 µg/mL. For the same compound, the MIC [5] was 64 µg/mL (≈ 77.6 µM), the MIC [6] was 128 µg/mL (≈ 155 µM) and the Interpretation ([7]; UTBLP + chloramphenicol) was “Synergy (FICI ≤ 0.5 is synergistic)”. For the same compound, the Interpretation ([7]; UTBLP + niclosamide) was “Additive (0.5 < x ≤ 4 is additive)”, the Interpretation ([7]; UTBLP + novobiocin) was “Synergy (FICI ≤ 0.5 is synergistic)” and the Interpretation ([7]; UTBLP + rifampicin) was “Synergy (FICI ≤ 0.5 is synergistic)”. The MICUTBLP ([7]; plate with chloramphenicol) was greater than 128 µg/mL, the MICUTBLP ([7]; plate with niclosamide) was greater than 128 µg/mL and the MICUTBLP ([7]; plate with novobiocin) was greater than 128 µg/mL. For the same compound, the MICUTBLP ([7]; plate with rifampicin) was greater than 128 µg/mL, the “MICUTBLP [MICcombo]” value [7, 20] was 2 µg/mL and the “MICUTBLP [MICcombo]” value ([7]; UTBLP in combination with niclosamide) was 0.25 µg/mL. For the same compound, the “MICUTBLP [MICcombo]” value [7, 22] was 16 µg/mL, the “MICUTBLP [MICcombo]” value [7, 23] was 4 µg/mL and the “MICantibiotic [MICcombo]” value [7, 21] was 4 µg/mL. The “MICantibiotic [MICcombo]” value ([7]; niclosamide in combination with the UTBLP) was 1024 µg/mL, the “MICantibiotic [MICcombo]” value [7, 24] was 32 µg/mL and the “MICantibiotic [MICcombo]” value [7, 25] was 2 µg/mL. For the same compound, the Interpretation ([8]; UTBLP + novobiocin) was “Synergy (FICI ≤ 0.5 is synergistic)”, the Interpretation ([8]; UTBLP + rifampicin) was “Synergy (FICI ≤ 0.5 is synergistic)” and the MICUTBLP ([8]; plate with novobiocin) was 128 µg/mL. The MICUTBLP ([8]; plate with rifampicin) was 128 µg/mL, the “MICUTBLP [MICcombo]” value [8, 22] was 16 µg/mL and the “MICUTBLP [MICcombo]” value [8, 23] was 16 µg/mL. The “MICantibiotic [MICcombo]” value [8, 24] was 64 µg/mL, the “MICantibiotic [MICcombo]” value [8, 25] was 256 µg/mL and the Interpretation ([9]; UTBLP + novobiocin) was “Synergy (FICI ≤ 0.5 is synergistic)”. The Interpretation ([9]; UTBLP + rifampicin) was “Synergy (FICI ≤ 0.5 is synergistic)”, the MICUTBLP ([9]; plate with novobiocin) was greater than 128 µg/mL and the MICUTBLP ([9]; plate with rifampicin) was greater than 128 µg/mL. The “MICUTBLP [MICcombo]” value [9, 22] was 8 µg/mL, the “MICUTBLP [MICcombo]” value [9, 23] was 16 µg/mL and the “MICantibiotic [MICcombo]” value [9, 24] was 128 µg/mL. The “MICantibiotic [MICcombo]” value [9, 25] was 0.5 µg/mL, the MIC [10] was 128 µg/mL (≈ 155 µM) and the Interpretation ([11]; UTBLP + novobiocin) was “Synergy (FICI ≤ 0.5 is synergistic)”. The Interpretation ([11]; UTBLP + rifampicin) was “Synergy (FICI ≤ 0.5 is synergistic)”, the MICUTBLP ([11]; plate with novobiocin) was greater than 128 µg/mL and the MICUTBLP ([11]; plate with rifampicin) was greater than 128 µg/mL. The “MICUTBLP [MICcombo]” value [11, 22] was 8 µg/mL, the “MICUTBLP [MICcombo]” value [11, 23] was 8 µg/mL and the “MICantibiotic [MICcombo]” value [11, 24] was 2 µg/mL. The “MICantibiotic [MICcombo]” value [11, 25] was 0.125 µg/mL, the Interpretation ([12]; UTBLP + chloramphenicol) was “Additive (0.5 < x ≤ 4 is additive)” and the MICUTBLP [12, 19] was 128 µg/mL. For the same compound, the “MICUTBLP [MICcombo]” value [12, 20] was 16 µg/mL, the “MICchloramphenicol [MICcombo]” value [12, 21] was 2 µg/mL and the MIC [13] was 32 µg/mL (≈ 38.8 µM). For the same compound, the MIC [14] was 32 µg/mL (≈ 38.8 µM), the MIC [15] was greater than 128 µg/mL and the MIC [16] was 128 µg/mL (≈ 155 µM). The MIC [17] was greater than 128 µg/mL, the Interpretation ([18]; UTBLP + novobiocin) was “Synergy (FICI ≤ 0.5 is synergistic)” and the Interpretation ([18]; UTBLP + rifampicin) was “Synergy (FICI ≤ 0.5 is synergistic)”. The MICUTBLP ([18]; plate with novobiocin) was greater than 128 µg/mL, the MICUTBLP ([18]; plate with rifampicin) was greater than 128 µg/mL and the “MICUTBLP [MICcombo]” value [18, 22] was 8 µg/mL. For the same compound, the “MICUTBLP [MICcombo]” value [18, 23] was 16 µg/mL, the “MICantibiotic [MICcombo]” value [18, 24] was 16 µg/mL and the “MICantibiotic [MICcombo]” value [18, 25] was 0.5 µg/mL.
